Structures can show the parent of a compound that is named as a salt.
What was measured:
[1] = tested on: Plasmodium cynomolgi Berok K4 asexual blood stage; assay: EC50 asexual blood stage growth
Method: (§1)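 The Reference Compound Library was tested by 10-point 3-fold dose response against P. cynomolgi Berok K4 asexual blood stages (SYBR proliferation assay, mefloquine background control). Culture medium contained 0.5% AlbuMAX or 20% M. fascicularis serum. P. falciparum 3D7 was tested in a 72-h SYBR Green assay with 0.5% AlbuMAX. Values are geometric mean EC50 over independent experiments; 10 uM is the top dose.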

[2] = tested on: Plasmodium falciparum 3D7 asexual blood stage; assay: EC50 asexual blood stage growth; conditions: serum: 0.5% AlbuMAX
Method: as §1

[3] = tested on: Plasmodium vivax liver stage (primary human hepatocyte culture); assay: maximum inhibition of schizont net growth area; higher = more active
Method: (§2)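 Dose-response of P. vivax liver stages in primary human hepatocytes, with 8 points (10 uM-[…], v1) or 12 points in duplicate (50 uM-280 pM, v2). Read-out is high-content imaging of schizont net growth area, hypnozoite quantity and hepatic nuclei. EC50 and CC20 (20% nuclei loss) were fitted in CDD Vault from the highest-quality independent experiment; toxic-dose bell-shaped points were masked. '>' marks the highest concentration with less than 50% activity, and ND means a non-sigmoidal curve.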

[4] = tested on: primary human hepatocytes; assay: CC20 hepatic nuclei (20% reduction); higher = less toxic
Method: as §2

[5] = tested on: Plasmodium vivax liver stage (primary human hepatocyte culture)
Method: as §2

[6] = serum: 20% M. fascicularis serum
[7] = P. vivax isolate: Pv590, hepatocyte lot: UBV, assay mode: Radical Cure, 8-day (treatment from day 5 post-infection)
[8] = P. vivax isolate: Pv756, hepatocyte lot: BGW, assay mode: Radical Cure, 8-day (treatment from day 5 post-infection)
[9] = P. vivax isolate: Pv923, hepatocyte lot: BGW, assay mode: Radical Cure, 8-day (treatment from day 5 post-infection)
[10] = P. vivax isolate: Pv914, hepatocyte lot: BGW, assay mode: Prophylactic, 6-day
[11] = P. vivax isolate: Pv668, hepatocyte lot: BGW, assay mode: Radical Cure, 8-day (treatment from day 5 post-infection)
[12] = P. vivax isolate: Pv395, hepatocyte lot: UBV, assay mode: Radical Cure, 8-day (treatment from day 5 post-infection)
[13] = P. vivax isolate: Pv922, hepatocyte lot: BGW, assay mode: Radical Cure, 8-day (treatment from day 5 post-infection)
[14] = P. vivax isolate: Pv360, hepatocyte lot: UBV, assay mode: Radical Cure, 8-day (treatment from day 5 post-infection)
[15] = P. vivax isolate: Pv458, hepatocyte lot: UBV, assay mode: Radical Cure, 8-day (treatment from day 5 post-infection)
[16] = P. vivax isolate: IVS17-02, hepatocyte lot: PDC, assay mode: Radical Cure, 8-day (treatment from day 5 post-infection)
[17] = P. vivax isolate: Pv360, hepatocyte lot: UBV, assay mode: Prophylactic, 6-day
[18] = P. vivax isolate: Pv657, hepatocyte lot: BGW, assay mode: Radical Cure, 8-day (treatment from day 5 post-infection)
[19] = P. vivax isolate: Pv728, hepatocyte lot: BGW, assay mode: Radical Cure, 8-day (treatment from day 5 post-infection)
[20] = P. vivax isolate: Pv357, hepatocyte lot: UBV, assay mode: Radical Cure, 8-day (treatment from day 5 post-infection)
[21] = P. vivax isolate: Pv836, hepatocyte lot: BGW, assay mode: Radical Cure, 8-day (treatment from day 5 post-infection)
[22] = P. vivax isolate: Pv914, hepatocyte lot: BGW, assay mode: Radical Cure, 8-day (treatment from day 5 post-infection)

C=CC1CN2CCC1CC2C(O)c1ccnc2ccc(OC)cc12 (centres undefined) [Quinidine]
EC50 asexual blood stage growth ([1]; serum: 0.5% AlbuMAX): 0.0308 µM
EC50 asexual blood stage growth [1, 6]: 0.0185 µM
EC50 asexual blood stage growth [2]: 0.0739 µM

COc1cc(Cc2cnc(N)nc2N)cc(OC)c1OC [Trimethoprim]
EC50 asexual blood stage growth ([1]; serum: 0.5% AlbuMAX): 0.793 µM
EC50 asexual blood stage growth [1, 6]: 0.496 µM
EC50 asexual blood stage growth [2]: 5.28 µM

C=C[C@H]1C[N@@]2CC[C@H]1C[C@H]2[C@H](O)c1ccnc2ccc(OC)cc12 [Quinine]
EC50 asexual blood stage growth ([1]; serum: 0.5% AlbuMAX): 0.127 µM
EC50 asexual blood stage growth [1, 6]: 0.174 µM
EC50 asexual blood stage growth [2]: 0.183 µM

CS(=O)(=O)c1ccc(-c2cnc(N)c(-c3ccc(C(F)(F)F)nc3)c2)cc1 [MMV048]
EC50 asexual blood stage growth ([1]; serum: 0.5% AlbuMAX): 0.0598 µM
EC50 asexual blood stage growth [1, 6]: 0.049 µM
EC50 asexual blood stage growth [2]: 0.127 µM

OCc1ccc(-c2cncc(Nc3cccc(Cl)c3)c2)cc1
maximum inhibition [3, 7]: 94.1%
CC20 hepatic nuclei [4, 7]: > 16.7 µM
EC50 hypnozoite quantity [5, 7]: > 50 µM
EC50 schizont net growth area [5, 7]: 2.54 µM

COc1ccc(-c2cnc3ccc(N4CCCC4)nn23)cc1OC
maximum inhibition [3, 8]: 103%
CC20 hepatic nuclei [4, 8]: > 16.7 µM
EC50 hypnozoite quantity [5, 8]: > 50 µM
EC50 schizont net growth area [5, 8]: > 16.7 µM

CCc1cc(=O)n(C)c(SC(C)C(=O)Nc2ccc(F)cc2)n1 (centres undefined)
maximum inhibition [3, 9]: 87.6%
CC20 hepatic nuclei [4, 9]: > 50 µM
EC50 hypnozoite quantity [5, 9]: > 50 µM
EC50 schizont net growth area [5, 9]: > 16.7 µM

Cc1c(Oc2cnc(C(=O)N3CC(C)(O)C3)cn2)ccc2c1B(O)OC2
maximum inhibition [3, 10]: 99.7%
CC20 hepatic nuclei [4, 10]: > 10 µM
EC50 hypnozoite quantity [5, 10]: > 1.11 µM
EC50 schizont net growth area [5, 10]: 1.63 µM

CNC(=S)N/N=C(\C)c1ccccn1
maximum inhibition [3, 11]: 100%
CC20 hepatic nuclei [4, 11]: > 50 µM
EC50 hypnozoite quantity [5, 11]: 1.92 µM
EC50 schizont net growth area [5, 11]: 4.44 µM

NS(=O)(=O)c1cccc(-c2ccc3ncc(N4CCOCC4)nc3c2)c1
maximum inhibition [3, 8]: 88.2%
CC20 hepatic nuclei [4, 8]: > 50 µM
EC50 hypnozoite quantity [5, 8]: > 50 µM
EC50 schizont net growth area [5, 8]: 0.57 µM

c1ccc(-c2csc(Nc3nc4cc5c(cc4s3)OCO5)n2)nc1
maximum inhibition [3, 12]: 72.6%
CC20 hepatic nuclei [4, 12]: > 10 µM
EC50 hypnozoite quantity [5, 12]: > 10 µM
EC50 schizont net growth area [5, 12]: > 3.33 µM

O=C(Nc1cc(C(F)(F)F)cc(C(F)(F)F)c1)Nc1ccc(Cl)c(Cl)c1
maximum inhibition [3, 13]: 51.2%
CC20 hepatic nuclei [4, 13]: > 5.56 µM
EC50 hypnozoite quantity [5, 13]: > 50 µM

Cc1sc2ncnc(Sc3nnc(N)s3)c2c1C
maximum inhibition [3, 13]: 86.8%
CC20 hepatic nuclei [4, 13]: > 16.7 µM
EC50 hypnozoite quantity [5, 13]: > 50 µM
EC50 schizont net growth area [5, 13]: > 5.56 µM

CC1CC(C)C(=O)C(C(O)CC2CC(=O)NC(=O)C2)C1 (centres undefined) [Cycloheximide]
maximum inhibition [3, 14]: 96.3%
maximum inhibition [3, 10]: 99.6%
CC20 hepatic nuclei [4, 14]: > 10 µM
CC20 hepatic nuclei [4, 10]: > 10 µM
EC50 hypnozoite quantity [5, 14]: > 10 µM
EC50 schizont net growth area [5, 14]: 0.0856 µM
EC50 hypnozoite quantity [5, 10]: > 3.33 µM
EC50 schizont net growth area [5, 10]: 1.39 µM

COC1CC(OC2CC(C3OC(C)(O)C(C)CC3C)OC2C2(C)CCC(C3(C)CCC4(CC(O)C(C)C(C(C)C5OC(O)(CC(=O)O)C(C)C(OC)C5OC)O4)O3)O2)OC(C)C1OC.N (centres undefined) [Maduramicin]
maximum inhibition [3, 15]: 101%
CC20 hepatic nuclei [4, 15]: 2.59 µM
EC50 hypnozoite quantity [5, 15]: 0.0225 µM
EC50 schizont net growth area [5, 15]: 0.000705 µM

CC[C@H]1CN2CCc3cc(OC)c(OC)cc3[C@@H]2C[C@@H]1C[C@H]1NCCc2cc(OC)c(OC)cc21
maximum inhibition [3, 11]: 107%
CC20 hepatic nuclei [4, 11]: 2.42 µM
EC50 hypnozoite quantity [5, 11]: > 50 µM
EC50 schizont net growth area [5, 11]: 0.306 µM

CC1(C)c2nc(-c3ccc(F)cc3)c(Nc3ccc(F)cc3)n2CCN1C(=O)CN [KAF156]
maximum inhibition [3, 16]: 93.2%
maximum inhibition [3, 17]: 103%
CC20 hepatic nuclei [4, 16]: > 1 µM
CC20 hepatic nuclei [4, 17]: > 10 µM
EC50 hypnozoite quantity [5, 16]: > 1 µM
EC50 schizont net growth area [5, 16]: 0.33 µM
EC50 hypnozoite quantity [5, 17]: 0.0329 µM
EC50 schizont net growth area [5, 17]: 0.0141 µM

COc1ccc(-c2cnc3ccc(NCc4ccc(S(N)(=O)=O)cc4)nn23)cn1
maximum inhibition [3, 18]: 79.2%
CC20 hepatic nuclei [4, 18]: > 50 µM
EC50 hypnozoite quantity [5, 18]: > 50 µM

COc1ccc(-c2cncc3ccc(C(=O)NCCCn4ccnc4)nc23)cc1
maximum inhibition [3, 18]: 70.8%
CC20 hepatic nuclei [4, 18]: 44.8 µM
EC50 hypnozoite quantity [5, 18]: > 50 µM
EC50 schizont net growth area [5, 18]: 26 µM

Cc1ncc(-c2ccnc(Nc3ccc(S(C)(=O)=O)cc3)n2)n1C(C)C
maximum inhibition [3, 9]: 69.4%
CC20 hepatic nuclei [4, 9]: 1.82 µM
EC50 hypnozoite quantity [5, 9]: > 50 µM
EC50 schizont net growth area [5, 9]: > 50 µM

CCC[C@@H]1C[C@@H](C(=O)N[C@@H]([C@H]2O[C@H](SC)[C@H](O)[C@@H](O)[C@H]2O)[C@H](C)Cl)N(C)C1 [Clindamycin hydrochloride]
maximum inhibition [3, 10]: 79.5%
CC20 hepatic nuclei [4, 10]: > 50 µM
EC50 hypnozoite quantity [5, 10]: > 50 µM
EC50 schizont net growth area [5, 10]: 0.00597 µM

O=C(O)c1cn(C2CC2)c2cc(N3CCNCC3)c(F)cc2c1=O [Ciprofloxacin]
maximum inhibition [3, 19]: 59.2%
CC20 hepatic nuclei [4, 19]: > 10 µM
EC50 hypnozoite quantity [5, 19]: > 10 µM
EC50 schizont net growth area [5, 19]: > 10 µM

O=c1c(Cl)c(Cl)cnn1-c1nc2ccccc2[nH]1
maximum inhibition [3, 15]: 89.7%
CC20 hepatic nuclei [4, 15]: > 3.33 µM
EC50 hypnozoite quantity [5, 15]: > 3.33 µM

CCC(C(=O)C(C)C(O)C(C)CCc1ccc(C)c(O)c1C(=O)[O-])C1OC(CC)(C2CCC(O)(CC)C(C)O2)CC1C.[Na+] (centres undefined) [Lasalocid-A]
maximum inhibition [3, 20]: 100%
CC20 hepatic nuclei [4, 20]: > 10 µM
EC50 hypnozoite quantity [5, 20]: 1.05 µM
EC50 schizont net growth area [5, 20]: 0.0431 µM

Nc1ncc(-c2cn[nH]c2)cc1-c1nc2cc(Cl)cnc2[nH]1
maximum inhibition [3, 18]: 63.7%
CC20 hepatic nuclei [4, 18]: > 50 µM
EC50 hypnozoite quantity [5, 18]: > 50 µM
EC50 schizont net growth area [5, 18]: > 50 µM

Cc1cc(Nc2ccc(C(F)(F)F)nc2)n2nc(C(C)(F)F)nc2n1
maximum inhibition [3, 10]: 98.8%
CC20 hepatic nuclei [4, 10]: > 10 µM
EC50 hypnozoite quantity [5, 10]: > 10 µM
EC50 schizont net growth area [5, 10]: 0.325 µM

N#Cc1ccc(-c2cnc(N)c(-c3ccc(C(N)=O)cc3)n2)cc1
maximum inhibition [3, 18]: 85.1%
CC20 hepatic nuclei [4, 18]: > 50 µM
EC50 hypnozoite quantity [5, 18]: > 50 µM
EC50 schizont net growth area [5, 18]: 0.0012 µM

Cc1nc(Sc2ncnc3sc4c(c23)CCC4)sc1CC(N)=O
maximum inhibition [3, 21]: 91%
CC20 hepatic nuclei [4, 21]: > 50 µM
EC50 hypnozoite quantity [5, 21]: > 50 µM
EC50 schizont net growth area [5, 21]: 2.86 µM

O=C(NCCN1CCCC1)c1cc(NCCCCN2CCC(F)(F)CC2)nc2ccc(Cl)cc12
maximum inhibition [3, 18]: 103%
CC20 hepatic nuclei [4, 18]: > 50 µM
EC50 hypnozoite quantity [5, 18]: > 50 µM
EC50 schizont net growth area [5, 18]: 0.00316 µM

N=c1n(CCN2CCCCC2)c2ccccc2n1CC(O)c1cccc(Br)c1 (centres undefined)
maximum inhibition [3, 19]: 111%
CC20 hepatic nuclei [4, 19]: 41.8 µM
EC50 hypnozoite quantity [5, 19]: > 50 µM
EC50 schizont net growth area [5, 19]: > 16.7 µM

N=C(N)c1ccc(OCCCCCOc2ccc(C(=N)N)cc2)cc1 [Pentamidine isethionate]
maximum inhibition [3, 10]: 99.6%
maximum inhibition [3, 22]: 94.4%
CC20 hepatic nuclei [4, 10]: 5.54 µM
CC20 hepatic nuclei [4, 22]: > 5.56 µM
EC50 hypnozoite quantity [5, 10]: 5.54 µM
EC50 schizont net growth area [5, 10]: 0.551 µM
EC50 hypnozoite quantity [5, 22]: > 50 µM
EC50 schizont net growth area [5, 22]: 8.39 µM

O=S1(=O)C=CC2ON=C(c3ccc(Cl)cc3)C21 (centres undefined)
maximum inhibition [3, 11]: 103%
CC20 hepatic nuclei [4, 11]: 37.6 µM
EC50 hypnozoite quantity [5, 11]: > 50 µM
EC50 schizont net growth area [5, 11]: > 1.85 µM

CCOc1ccc(CCC2CCN(C(C)c3nc(N)nc(N(C)C)n3)CC2)cc1 (centres undefined)
maximum inhibition [3, 12]: 64.7%
CC20 hepatic nuclei [4, 12]: > 10 µM
EC50 hypnozoite quantity [5, 12]: > 10 µM
EC50 schizont net growth area [5, 12]: > 3.33 µM

CN(C)C(=S)NN=C1C(=O)Nc2ccccc21
maximum inhibition [3, 9]: 66.1%
CC20 hepatic nuclei [4, 9]: 40.3 µM
EC50 schizont net growth area [5, 9]: > 16.7 µM

COc1ccc(-c2c(C)nn3c(N)c(C#N)cnc23)cc1OC
maximum inhibition [3, 7]: 95.7%
CC20 hepatic nuclei [4, 7]: > 50 µM
EC50 hypnozoite quantity [5, 7]: > 50 µM
EC50 schizont net growth area [5, 7]: 0.599 µM
